Experimental data as given in PMC8510480, “Searching Anti-Zika Virus Activity in 1H-1,2,3-Triazole Based Compounds” (Molecules, 2021).
“And” between values parts separate entries of the source, which are not always exact repeats. Equal values may be shown once. Read-outs that look alike come from different tables or passages of the source.

Assays:
[1] = system: macrophages (peritoneal and J774A.1) and fibroblast cells; set-up: method as in PMID 33339081; conditions: ref [28]; cited from earlier work
[2] = Cytotoxicity test with MTT method in Vero cells; type: cell-based, African green monkey; conditions: African green monkey, 5 days, read-out: CC50 (50% cytotoxic concentration)
Protocol: (§1) The cytotoxicity of compounds 1–7 to Vero cells, an epithelial cell line derived from the kidney of an African green monkey, was tested using the 3-(4,5-dimethylthiazol-2-yl)-2,5-diphenyltetrazolium bromide (MTT) method. […] Based on CC20 values, which was the maximum concentration used for antiviral screening, 3b compound was the least toxic with a value of 527.2 µM. Compounds 2a and 2b were the most cytotoxic with values of 8.87 µM and 9.89 µM, respectively. […] The results from compounds 3a, 3b and 4a, 4b ranged from 40.69 to 527.20 µM. […] The presence of phthalimide group or sugar increases the values of CC20 and CC50 (Table 2 and Supplementary Material: Figure S1).
(§2) 96-well plates with 1 × 10^4 cell/well were used in this assay and prepared 24 h previously. The compounds were diluted in a 2:1 ratio so that a maximum of 0.8% DMSO was used. The concentrations used were 800, 400, 200, 100, 50, 25 and 12.5 µM. Dilutions were added to the wells in triplicate and incubated at 37 °C and 5% CO2 atmosphere. After 5 days, the wells were emptied and a 50 µL of 1 mg/mL MTT (3-(4,5-dimethylthiazol-2-yl)-2,5-diphenyltetrazolium bromide) (Sigma-Aldrich) solution was added, and the cells were incubated for 3–4 h for formation of formazan crystals through the mitochondria of viable cells. Then, medium was removed and 100 µL DMSO was added to the wells to solubilize the formazan crystals. With the aid of an incubator Tecnal TE-420 (Tecnal Equipamentos Científicos, Piracicaba, São Paulo, Brazil), the plates were homogenized at 120 RPM at 37 °C and the optical densities were read at 570 nm on a spectrophotometer BioTekTM ELx800TM (BioTek Instruments, Winooski, VT, USA).
(§3) The determination of the CC20 and CC50 values was obtained through the linear regression analysis of the XY graph generated by the values of the concentrations used in the test and the triplicate values of the viability. In the post-infection and pre-treatment tests, ANOVA and Dunnett tests were used, considering […] as the minimum significance value. All tests were performed in GraphPad Prism v.6.0 program (GraphPad Software, Inc., San Diego, CA, USA).

Vero cells [3] = assay: Cytotoxicity test with MTT method in Vero cells; type: cell-based, African green monkey; conditions: for CC20 (20% cytotoxic concentration): 5 days
Protocol: as §1, §2, §3

ZIKV = assay: Post-infection test with ZIKV in Vero cells; type: cell-based, Zika virus
Protocol: We then investigated the activity of compound 4b after ZIKV infection in cells. As already noted in the screening test, 4b reduced ZIKV growth to levels similar to 6MMPr, a positive control previously described by our group. As in the pre-treatment test, four different concentrations were used, with the maximum being CC20 (136.90, 68.45, 34.22 and 17.11 µM). […] It is worth highlighting the constant decrease in the viral titer, even in lower concentrations, while the positive control 6MMPr reduces it only in the highest concentrations.
Statistical analysis compared the concentrations of each compound at each collection time (3 d.p.i. and 5 d.p.i.) with a t-test.
Figure 6 Comparison of anti-ZIKV activity between 6MMPr and 4b after three- and five-days post-infection (d.p.i.). 6MMPr and compound 4b were submitted to a post-infection test when Vero cells was infected with ZIKV at MOI 0.1 for 2 h then treated with compounds. Concentrations used in the test corresponded to CC20 (4b = 136.90 µM; 6MMPr = 60.50 µM), CC20/2 (4b = 68.45 µM; 6MMPr = 30.25 µM), CC20/4 (4b = 34.22 µM; 6MMPr = 15.13 µM) and CC20/8 (4b = 17.11 µM; 6MMPr = 7.56 µM). The experiment was done in triplicates and values are the mean and the SD. Statistical analysis was made between compounds using t-test on GraphPad Prism program. * = significative; ns = not statistically significant for p < 0.05. (a) 3 d.p.i. from both compounds. (b) 5 d.p.i. from both compounds.
96-well plates with 1 × 10^4 cell/well were used in this assay and prepared 24 h previously. Seven serial dilutions of the virus were prepared in DMEM + 2% FBS culture medium. After removing the culture medium from the plate, 50 µL of each dilution was added to the wells in several repetitions. The plate was incubated at 37 °C and 5% atm CO2 for 1 h. After this interval, each well of the plate received an additional 100 µL of DMEM + 2% FBS culture medium. The plate was incubated again, in the same parameters, for 5 days. Some columns of the plate were selected for use as a cell control (culture medium only, no virus). The reading was performed in an inverted optical microscope AE2000, Motic (Motic, Kowloon Bay, Hong Kong) counting positives wells by the presence of cytopathic effect and the determination of the sample title was performed with the aid of the Microsoft Office Excel program (Microsoft® Office, Redmond, WA, USA).
48-well plates with 2.5 × 10^4 cells/well were prepared 24 h previously. A ZIKV solution at MOI 0.1 was inoculated into the wells and the cells incubated at 37 °C and 5% CO2 atmosphere. After 2 h, the culture medium was removed, and the wells were washed with 1X PBS. 2:1 dilution of 4b (136.90 µM, 68.45 µM, 34.22 µM and 17.11 µM) and 6MMPr (60.50 µM, 30.25 µM, 15.13 µM and 7.56 µM) were added in triplicate. The cells were again incubated for 72 h and 120 h. The supernatants from the wells were collected and titrated.

Vero cells [4] = system: Vero cells; set-up: method as in PMID 28803932; conditions: ref [17], cited from earlier work

| SMILES | CC50 at 5 days [2] | CC20 (20% cytotoxic concentration) (Vero cells [3]) | other results |
| --- | --- | --- | --- |
| O=C1c2ccccc2C(=O)N1CCn1cc(-c2ccccc2)nn1 [4-phenyl-1-[2-(phthalimido-2-yl)ethyl]-1-H-1,2,3-triazole] | – | – | cytotoxicity [1]: low cytotoxicity |
| CC(C)(O)c1cn(CN2C(=O)c3ccccc3C2=O)nn1 [Compound 1] | 680 µM | 177.10 µM | – |
| O=C1C=C(n2cc(CCO)nn2)C(=O)c2ccccc21 [Compound 2a] | 38 µM | 8.87 µM | – |
| O=C1C=C(n2cc(CCCO)nn2)C(=O)c2ccccc21 [Compound 2b] | 38.8 µM | 9.89 µM | – |
| O=C1C=C(NCc2cn(CN3C(=O)c4ccccc4C3=O)nn2)C(=O)c2ccccc21 [Compound 3a] | 470 µM | 55.28 µM | – |
| O=C1C=C(NCc2cn(CCN3C(=O)c4ccccc4C3=O)nn2)C(=O)c2ccccc21 [Compound 3b] | 1190 µM | 527.2 µM and 527.20 µM | – |
| O=C1C(Br)=C(NCc2cn(CCCN3C(=O)c4ccccc4C3=O)nn2)C(=O)c2ccccc21 [Compound 4a] | 68.8 µM | 40.69 µM | – |
| O=C1C=C(NCCn2cc(CCCO)nn2)C(=O)c2ccccc21 [Compound 5a, 2-[2-(4-(3-Hydroxypropyl)-1H-1,2,3-triazol-1-yl)]-ethylamino-1,4-naphthoquinone] | 294 µM | 74.85 µM | concentration until which cells remain viable (Vero cells [3]): ≤ 400 µM; melting point: 143 to 145 °C |
| CC(C)(O)c1cn(CCNC2=CC(=O)c3ccccc3C2=O)nn1 [Compound 5b] | 298 µM | 66.93 µM | concentration until which cells remain viable (Vero cells [3]): ≤ 400 µM |
| CSc1ncnc2c1ncn2[C@@H]1O[C@H](CO)[C@@H](O)[C@H]1O [Compound 6MMPr, 6-methylmercaptopurine riboside, reference compound] | – | – | % Viral Inhibition (ZIKV; 3 d.p.i., CC20 (4b 136.90 µM; 6MMPr 60.50 µM)): 99.8%; % Viral Inhibition (ZIKV; 3 d.p.i., CC20/2 (4b 68.45 µM; 6MMPr 30.25 µM)): 54.4%; % Viral Inhibition (ZIKV; 3 d.p.i., CC20/4 (4b 34.23 µM; 6MMPr 15.13 µM)): 42.7%; % Viral Inhibition (ZIKV; 3 d.p.i., CC20/8 (4b 17.11 µM; 6MMPr 7.6 µM), negative = increased virus titer compared to control): −93.4 * %; % Viral Inhibition (ZIKV; 5 d.p.i., CC20 (4b 136.90 µM; 6MMPr 60.50 µM)): 99.7%; % Viral Inhibition (ZIKV; 5 d.p.i., CC20/2 (4b 68.45 µM; 6MMPr 30.25 µM)): 96.8%; % Viral Inhibition (ZIKV; 5 d.p.i., CC20/4 (4b 34.23 µM; 6MMPr 15.13 µM)): 95.1%; % Viral Inhibition (ZIKV; 5 d.p.i., CC20/8 (4b 17.11 µM; 6MMPr 7.6 µM)): 81.1%; % Viral Inhibition (ZIKV; post-infection test, Table 4, concentration and time not stated): 97.8%; IC50 (ZIKV; post-infection test, ZIKV MOI 0.1, Vero cells, read-out: IC50 (50% inhibition concentration, virus replication)): 24.5 µM; effect on growth of the virus (viral titer) (ZIKV; post-infection, four concentrations from CC20 to CC20/8, 3 and 5 d.p.i.): prevents the growth of the virus in both cases; SI (selectivity index) (ZIKV; ratio between the CC50 and IC50 values): 11.9; CC50 (Vero cells [4]; read-out: CC50 (50% cytotoxic concentration)): 291 µM; CC20 (20% cytotoxic concentration) (Vero cells [4]): 60.50 µM and 60.5 µM |
| CC(=O)OC[C@H]1O[C@H](OCCc2cn(C3=CC(=O)c4ccccc4C3=O)nn2)C=C[C@@H]1OC(C)=O [Compound 6a] | 68 µM | 39.92 µM | – |
| CC(=O)OC[C@H]1O[C@H](OCc2cn(C3=CC(=O)c4ccccc4C3=O)nn2)C=C[C@@H]1OC(C)=O [Compound 6b] | 48.7 µM | 21.18 µM | – |
| CC(=O)OC[C@H]1O[C@H](OC(C)(C)c2cn(C3=CC(=O)c4ccccc4C3=O)nn2)C=C[C@@H]1OC(C)=O [Compound 6c] | 58.1 µM | 25.73 µM | – |
| CC(=O)OC[C@H]1O[C@H](OCCCc2cn(C3=CC(=O)c4ccccc4C3=O)nn2)C=C[C@@H]1OC(C)=O [Compound 6d] | 69.5 µM | 38.61 µM | – |
| CC(=O)OCC1OC(n2cc(CNC3=C(Br)C(=O)c4ccccc4C3=O)nn2)C(OC(C)=O)C(OC(C)=O)C1OC(C)=O (centres unmarked) [Compound 7] | 334 µM | 119.10 µM | – |
